Source: patent publication US20030134335A1, “Method for reducing the immunogenicity of heterologous proteins by elimination of t-cell epitopes” (priority 1999, published 2003)

What was measured:
[1] = system: SakSTAR specific T-cell clones (CD3+, CD4+); assay: Functional T-cell assay: proliferation (BrdU) of SakSTAR-specific T-cell clones with APC and antigen/peptide; type: cell-based, human; conditions: for immunogenic / functional T-cell epitope by T-cell clone specificity: over 100 SakSTAR specific T-cell clones, SakSTAR-derived peptides; for proliferation of region(71-87)-specific T-cell clones: positive if at least three times the background
Excerpt: For the cloning of SakSTAR-specific T-cell clones, approximately 15×10^6 PBMC from each donor were stimulated with an optimal concentration of SakSTAR for 7-9 days. The visible T-cell clones were harvested under the microscope, and individually re-stimulated in a 96-well flat-bottom plate with autologous PBMC as antigen presenting cells (APC). These wells were supplemented on day 1 with 20U/ml recombinant human interleukin-2 (IL-2) (Boehringer Mannheim, Mannheim, Germany) and allowed to grow for 8-11 days. Re-stimulation was repeated every 8-11 days under the same conditions. After 3 to 6 passages, autologous PBMC were replaced by autologous Epstein Barr Virus (EBV)-immortalized B-cell lines as antigen presenting cells.
To identify immunogenic regions on the SakSTAR molecule, the isolated T-cell clones were tested for their specificity using SakSTAR-derived peptides. In total 25 peptides 17 residues in length, each overlapping 12 residues were synthesized using a fluorenylmethoxy-carbonyl-protected amino acid coupling procedure (Hiemstra et al., 1997). Each individual T-cell clone was tested for its specificity by co-culturing T-cells, Mitomycin C-treated autologous EBV-B-cells and antigen or the appropriate peptide for 4 days. Subsequently, the T-cell clones were pulsed for 24 hours with BrdU, harvested and analyzed for their BrdU content.

PBMC = assay: Proliferation (stimulation index) of SakSTAR-myc-primed PBMC re-stimulated with antigen/peptides; type: cell-based, human; conditions: for cellular immune response (stimulation index) of SakSTAR-myc primed PBMC: PBMC from 10 region(71-87)-immunoreactive donors, value exceeding 3 positive
Excerpt: However, the vast majority of humans does also recognize additional immunogenic SakSTAR regions (untouched in these SakSTAR-variants), which would invalidate such an experiment. Therefore, 25 other healthy donors were screened for SakSTAR immunoreactivity. PBMC were thawed, washed four times in 1% human serum albumin, and cultured at 1.8×10^6 cells/ml in RPMI 1640 supplemented with 5%. human serum (Biowitthaker, Walkersville, Md.) and gentamycin with or without SakSTAR-myc for 10 days in a humidified CO2 incubator. The non-adherent cells were harvested and restimulated with no antigen, SakSTAR-myc or different peptides. For antigen presenting cells, irradiated autologous PBMC were T-cell depleted, using CD3-M450 Dynabeads (Dynal, Compiégne, France) according manufacturer procedures (FACS analysis indicated >95% non-T-cells). The plates were incubated at 37° C. under humidified atmosphere containing 5% CO2 for 5 days, and pulsed with BrdU for the last 22 to 24 hours.
Subsequently, the cells were harvested and analyzed for their BrdU content (BrdU ELISA, Boehringer Mannheim, Mannheim, Germany). A stimulation index was calculated, by dividing the OD obtained from the PBMC in response to an antigen/peptide by that of the spontaneous proliferation (no antigen) control. A value exceeding 3 was considered positive, indicating the proliferation of specific T-cells to that particular antigen/peptide.

Row | Sequence | immunogenic / functional T-cell epitope by T-cell clone specificity [1] | cellular immune response (stimulation index) of SakSTAR-myc primed PBMC (PBMC) | other results
1 | AYKEFRVVELD [S1, 11-mer peptide, SakSTAR residues 72-82] | functional T-cell epitopes |  | proliferation of region(71-87)-specific T-cell clones [1]: clones Tc-1 to Tc-6 proliferated
2 | TYYDKNKKKEE [90-TYYDKNKKKEE-100] | no T-cell clones were isolated |  | 
3 | TAYKEFRVVELDPSAKI [71-TAYKEFRVVELDPSAKI-87, wild type SakSTAR(71-87) 17-mer peptide] |  |  | donors from which isolated T-cell clones were stimulated by the peptide ([1]; T-cell clones from 10 healthy donors): 9 of 10; SakSTAR positive donors with a cellular immune response to the peptide (PBMC; 20 identified SakSTAR positive donors, stimulation index exceeding 3 positive): 80%
4 | TAYKEFAVVALDPSAKI [double (R77A, E80A), multiple mutation(71-87) peptide] |  | none of the tested donors showed a positive cellular immune response | 
5 | HYVEFPIKPGT [43-HYVEFPIKPGT-53] | no T-cell clones were isolated |  | 
6 | TAYKEFAVVALAPSAKI [triple (R77A, E80A, D82A), multiple mutation(71-87) peptide] |  | none of the tested donors showed a positive cellular immune response | 
7 | EFRVVELDPSA [S2, 11-mer peptide, SakSTAR residues 75-85] | functional T-cell epitopes |  | proliferation of region(71-87)-specific T-cell clones [1]: Tc-7 to Tc-10 recognize the S2 peptide
8 | TAYQEFSVVSLSPSAKI [quadruple (K74Q, R77S, E80S, D82S), multiple mutation(71-87) peptide] |  | none of the tested donors showed a positive cellular immune response | 
9 | TAYAAFAVVALAPSAKI [quintuple (K74A, E75A, R77A, E80A, D82A), multiple mutation(71-87) peptide] |  | none of the tested donors showed a positive cellular immune response | 
